Measurements reported in patent publication US6552077B2, “Albumin-binding compounds that prevent nonenzymatic glycation and that may be used for treatment of glycation-related pathologies” (Exocell, Inc., priority 1996, dated 2003).
Structures can show the parent of a compound that is named as a salt.

How the values were obtained:
Human albumin [1] = biological target: T1, Human albumin (Homo sapiens, UniProt P02768); experiment: Prevention of albumin glycation at physiologically significant sites (ELISA with anti-glycated albumin monoclonal antibody); assay type: biochemical; details: for IC50: human albumin 10 mg/ml, 40 mM glucose, 4 days, compound 1-1000 μM
Experimental: The performance of paired incubations allowed comparison of the amount of glycated albumin formed under control (0 mM glucose), stimulated (40 mM glucose) and inhibited (test compound plus glucose) conditions.

Human albumin [2] = biological target: T1, Human albumin; experiment: Anti-glycation activity of 2-(phenylamino)phenylacetic acids (glycated albumin ELISA); assay type: biochemical; details: for IC50: human albumin 10 mg/ml, 0-50 mM glucose, 48-144 hours, 37° C., read-out: Glycation Inhibition IC50; for Antiglycation IC50 versus COX Inhibition IC50 (ratio): ratio of glycation IC50 to cyclo-oxygenase IC50
Experimental: After dialysis to remove free glucose and compound, the amount of glycated albumin formed was determined by enzyme-linked immunosorbent assay using the monoclonal antibodies known to specifically react with Amadori-glucose adducts in glycated albumin and to be unreactive with the nonglycated protein. The presence of glucose in the incubations promotes the nonenzymatic glycation of albumin, and the performance of paired incubations allows comparison of the amount of glycated albumin formed under control (0 glucose), stimulated (25-50 mM glucose), and inhibited (compound plus glucose) conditions.

cyclo-oxygenase = biological target: T2, cyclo-oxygenase (Bos taurus, UniProt O62664); experiment: Cyclo-oxygenase inhibition, conversion of arachidonic acid to prostaglandin E2 in bovine seminal vesicle homogenates; assay type: biochemical; details: arachidonic acid to prostaglandin E2, 1-30 minutes, read-out: COX Inhibition IC50
T2 construct: from tissue; host or cells: bovine seminal vesicles (cellular homogenate)
T2 sequence (O62664 25-600): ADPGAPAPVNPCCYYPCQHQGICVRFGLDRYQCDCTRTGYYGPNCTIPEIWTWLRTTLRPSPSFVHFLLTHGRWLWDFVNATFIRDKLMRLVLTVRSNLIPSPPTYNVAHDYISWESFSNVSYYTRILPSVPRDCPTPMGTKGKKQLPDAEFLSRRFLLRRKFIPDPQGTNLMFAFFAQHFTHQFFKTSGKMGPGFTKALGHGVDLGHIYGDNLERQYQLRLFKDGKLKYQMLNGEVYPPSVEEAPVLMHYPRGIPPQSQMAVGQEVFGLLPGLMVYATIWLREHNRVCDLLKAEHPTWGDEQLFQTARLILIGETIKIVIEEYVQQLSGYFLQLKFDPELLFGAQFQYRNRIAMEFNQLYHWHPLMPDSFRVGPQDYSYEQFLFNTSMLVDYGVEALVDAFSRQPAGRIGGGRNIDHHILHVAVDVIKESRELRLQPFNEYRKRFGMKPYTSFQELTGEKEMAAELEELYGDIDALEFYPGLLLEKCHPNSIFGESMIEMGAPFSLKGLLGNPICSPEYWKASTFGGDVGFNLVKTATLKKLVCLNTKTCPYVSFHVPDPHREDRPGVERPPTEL
Experimental: Cellular homogenates of bovine seminal vesicles were incubated with arachidonic acid and the production of prostaglandins was monitored.

glycated albumin = biological target: T3, glycated albumin (Mus musculus, UniProt P07724); experiment: Prevention of albumin glycation in vivo, plasma glycated albumin by ELISA; details: mice; for Glycated Albumin, Percent change: post vs pre-treatment; for Glycated Albumin, Post-treatment: four hours after last dosing; for Glycated Albumin, Pre-treatment: before treatment
T3 construct: from tissue; host or cells: mouse plasma (in vivo dosing)
Description: Blood was taken before the initiation of treatment and four hours after the last dosing at the conclusion of the treatment.

Mice = experiment: Urine protein excretion after 8 weeks of treatment; assay type: in vivo
Experimental: Mice were treated for 8 weeks with 10 mg/kg/day of 2-(3-chlorophenylamino) phenylacetic acid in divided doses. Urine samples were obtained at the initiation and termination of treatment for examination of protein excretion, which measures vascular dysfunction that is associated with glycation-related pathology As shown below, the reduction in glycated albumin was associated with a reduction in urine protein excretion.

[3] = 5 mg/kg/day intraperitoneal for 5 days
[4] = 5 mg/kg/day intraperitoneal in divided doses for 5 days
[5] = 10 mg/kg/day intraperitoneal for 5 days
[6] = 10 mg/kg/day intraperitoneal in divided doses for 5 days

T3 sequence (P07724 25-608): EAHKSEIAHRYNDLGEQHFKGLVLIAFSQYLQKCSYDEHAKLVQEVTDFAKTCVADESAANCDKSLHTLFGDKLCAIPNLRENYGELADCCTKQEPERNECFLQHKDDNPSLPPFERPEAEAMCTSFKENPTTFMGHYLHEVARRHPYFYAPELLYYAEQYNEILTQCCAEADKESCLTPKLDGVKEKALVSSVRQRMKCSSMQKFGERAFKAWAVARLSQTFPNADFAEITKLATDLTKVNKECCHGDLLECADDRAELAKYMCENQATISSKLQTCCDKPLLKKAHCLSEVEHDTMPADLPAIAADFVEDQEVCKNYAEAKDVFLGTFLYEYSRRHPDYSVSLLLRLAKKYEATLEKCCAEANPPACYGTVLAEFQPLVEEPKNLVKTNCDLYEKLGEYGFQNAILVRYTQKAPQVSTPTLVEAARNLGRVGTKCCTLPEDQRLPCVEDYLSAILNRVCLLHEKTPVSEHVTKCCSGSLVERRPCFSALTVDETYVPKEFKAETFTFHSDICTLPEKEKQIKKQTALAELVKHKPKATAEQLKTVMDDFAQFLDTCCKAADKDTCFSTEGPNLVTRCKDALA
T1 sequence (P02768 25-609): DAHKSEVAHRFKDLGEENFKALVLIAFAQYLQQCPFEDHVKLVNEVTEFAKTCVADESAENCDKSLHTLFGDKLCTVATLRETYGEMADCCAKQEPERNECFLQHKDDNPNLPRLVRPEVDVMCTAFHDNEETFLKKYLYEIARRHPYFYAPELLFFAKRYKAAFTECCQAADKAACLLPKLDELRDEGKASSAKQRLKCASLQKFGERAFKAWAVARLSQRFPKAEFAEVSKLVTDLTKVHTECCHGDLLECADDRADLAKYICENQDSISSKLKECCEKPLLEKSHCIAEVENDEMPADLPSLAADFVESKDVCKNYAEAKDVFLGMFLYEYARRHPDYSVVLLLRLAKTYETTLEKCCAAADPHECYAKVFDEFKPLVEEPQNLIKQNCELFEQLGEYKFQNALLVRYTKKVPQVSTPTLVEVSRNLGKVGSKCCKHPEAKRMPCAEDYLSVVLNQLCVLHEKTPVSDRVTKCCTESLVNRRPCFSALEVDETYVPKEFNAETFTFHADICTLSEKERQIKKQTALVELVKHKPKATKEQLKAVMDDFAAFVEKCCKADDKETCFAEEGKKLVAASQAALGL

IC50 (Human albumin [2]) [µM] | Antiglycation IC50 versus COX Inhibition IC50 (ratio) (Human albumin [2]) | IC50 (cyclo-oxygenase) [µM] | Compound | other results
– | – | – | CC1=C(CC(=O)O)c2cc(F)ccc2/C1=C\c1ccc([S+](C)[O-])cc1 (stereo not drawn) [[Z]-5-fluoro-2-methyl-1 [p-(methylsulfinyl)phenyl] (methylene-1H-indene-3-acetic acid, reference compound] | IC50 (Human albumin [1]): 22000 µM
155 | 0.54 | 288 | O=C(O)Cc1ccccc1Nc1ccccc1 [Example 3, 2-[(phenyl)amino]phenylacetic acid] | –
63 | 0.90 | 71 | O=C(O)Cc1ccccc1Nc1ccc(Cl)cc1Cl [Example 8, 2-[(2,4-dichlorophenyl)amino]phenylacetic acid] | –
– | – | – | O=C(O)Cc1ccccc1Nc1cccc(Cl)c1 (as salt: salt) [Example 5, 2-[(3-chlorophenyl)amino]phenylacetic acid] | melting point: 102 to 103 °C
11 | 0.11 | 98 | O=C(O)Cc1ccccc1Nc1ccc(Cl)cc1 [Example 6, 2-[(4-chlorophenyl)amino]phenylacetic acid] | –
10 | 0.24 | 42 | O=C(O)Cc1ccccc1Nc1ccccc1Cl [Example 4, 2-[(2-chlorophenyl)amino]phenylacetic acid] | Glycated Albumin, Percent change (glycated albumin; [3]): −32.5%; Glycated Albumin, Post-treatment (glycated albumin; [4]): 500 µg/mL; Glycated Albumin, Percent change (glycated albumin; [5]): −47.7%; Glycated Albumin, Post-treatment (glycated albumin; [6]): 426 µg/mL; Glycated Albumin, Pre-treatment (glycated albumin; 5 mg/kg/day group): 741 µg/mL; Glycated Albumin, Pre-treatment (glycated albumin; 10 mg/kg/day group): 815 µg/mL
112 | 19.0 | 6 | Cc1cccc(C)c1Nc1ccccc1CC(=O)O [Example 13, 2-[(2,6-dimethylphenyl)amino]phenylacetic Acid] | –
2.5 | 0.02 | 141 | O=C(O)Cc1ccccc1Nc1ccc(Cl)c(Cl)c1 [Example 11, 2-[(3,4-dichlorophenyl)amino]phenylacetic acid] | –
50 | 0.08 | 600 | O=C(O)Cc1ccccc1Nc1cccc(Cl)c1 [Example 5, 2-[(3-chlorophenyl)amino]phenylacetic acid] | ability to prevent glycation of the physiologically important sites (Human albumin [1]; comparison among the compounds of Table 1): greatest ability to prevent glycation; IC50 (Human albumin [1]): 15 µM; Glycated Albumin, Percent change (glycated albumin; [3]): −18.4%; Glycated Albumin, Post-treatment (glycated albumin; [4]): 697 µg/mL; Glycated Albumin, Percent change (glycated albumin; [5]): −45.6%; Glycated Albumin, Post-treatment (glycated albumin; [6]): 352 µg/mL; Glycated Albumin, Pre-treatment (glycated albumin; 5 mg/kg/day group): 854 µg/mL; Glycated Albumin, Pre-treatment (glycated albumin; 10 mg/kg/day group): 647 µg/mL; Urine protein, Termination (Mice; after 8 weeks of 10 mg/kg/day in divided doses): 2.7 μg/24 hrs; Urine protein, Initiation (Mice; at initiation of treatment (baseline)): 7.6 μg/24 hrs
